Each compound was assayed against human IRAK4 FL (Full Length) (Homo sapiens (Human), UniProt Q9NWZ3) (assay: IRAK4 Enzymatic DELFIA Assay, Protocol A). Conditions: not given.
Type: biochemical

Chain of human IRAK4 FL (Full Length) (Q9NWZ3 whole entry): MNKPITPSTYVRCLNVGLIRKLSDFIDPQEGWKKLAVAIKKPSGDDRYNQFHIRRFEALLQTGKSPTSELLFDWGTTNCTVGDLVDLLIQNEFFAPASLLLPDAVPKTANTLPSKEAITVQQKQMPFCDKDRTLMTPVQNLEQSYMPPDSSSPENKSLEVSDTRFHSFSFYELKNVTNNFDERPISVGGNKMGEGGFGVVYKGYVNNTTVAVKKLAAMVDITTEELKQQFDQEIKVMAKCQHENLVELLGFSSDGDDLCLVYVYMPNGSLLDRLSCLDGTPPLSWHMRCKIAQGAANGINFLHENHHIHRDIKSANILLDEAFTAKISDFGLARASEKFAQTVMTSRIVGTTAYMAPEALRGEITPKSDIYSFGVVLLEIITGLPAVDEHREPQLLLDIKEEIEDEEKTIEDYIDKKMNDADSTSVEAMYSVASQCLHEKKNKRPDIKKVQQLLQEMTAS

`CC(C)Oc1cc2c(OC[C@@H]3CCC(=O)N3)ncc(-c3cccc(=O)[nH]3)c2cc1C(N)=O` [Example 378, 4-(6-oxo-1,6-dihydropyridin-2-yl)-1-{[(2S)-5-oxopyrrolidin-2-yl]methoxy}-7-(propan-2-yloxy)isoquinoline-6-carboxamide] gave an IC50 of 59 nM.

Same assay, conditions: human IRAK4 FL, 0.6 mM ATP (KM); read-out: IRAK4 DELFIA Protocol A IC50

Point of comparison: `CC(C)Oc1cc2c(OC[C@H]3NC(=O)[C@@H]4CNC[C@H]34)nccc2cc1C(N)=O` [Example 226, 1-{[(1S,3aS,6aR)-3-oxooctahydropyrrolo[3,4-c]pyrrol-1-yl]methoxy}-7-(propan-2-yloxy)isoquinoline-6-carboxamide], IC50 222 nM. Against it:
- CC(C)Oc1cc2c(OC[C@H]3NC(=O)[C@@H]4CN(C)C[C@H]34)nccc2cc1C(N)=O [Example 213, 1-{[(1S,3aS,6aR)-5-methyl-3-oxooctahydropyrrolo[3,4-c]pyrrol-1-yl]methoxy}-7-(propan-2-yloxy)isoquinoline-6-carboxamide] — 6.4-fold higher, 1420 nM
- COc1cc2c(OC[C@H]3NC(=O)C[C@@H]3CO)nccc2cc1C(N)=O [Example 214, 1-{[(2S,3S)-3-(hydroxymethyl)-5-oxopyrrolidin-2-yl]methoxy}-7-methoxyisoquinoline-6-carboxamide] — within 1.5-fold, 215 nM
- COc1cc2c(OC[C@H]3NC(=O)CC3(C)C)nccc2cc1C(N)=O [Example 221, 1-{[(2S)-3,3-dimethyl-5-oxopyrrolidin-2-yl]methoxy}-7-methoxyisoquinoline-6-carboxamide] — 4.1-fold lower, 54 nM
- COc1cc2c(OC[C@@H]3C[C@H](CC#N)C(=O)N3)nccc2cc1C(N)=O [Example 224, 1-{[(2S,4R)-4-(cyanomethyl)-5-oxopyrrolidin-2-yl]methoxy}-7-methoxyisoquinoline-6-carboxamide] — 5.3-fold higher, 1170 nM
- COc1cc2c(OC[C@H]3CN(C)C(=O)O3)nccc2cc1C(N)=O [Example 239, 7-methoxy-1-{[(5R)-3-methyl-2-oxo-1,3-oxazolidin-5-yl]methoxy}isoquinoline-6-carboxamide] — 5.3-fold higher, 1180 nM
- COc1cc2c(OC[C@H]3NC(=O)[C@@H](C)[C@@H]3CF)nccc2cc1C(N)=O [Example 254, 1-{[(2S,3S,4S)-3-(fluoromethyl)-4-methyl-5-oxopyrrolidin-2-yl]methoxy}-7-methoxyisoquinoline-6-carboxamide] — 13-fold higher, 2950 nM
- COc1cc2c(OC[C@@H]3C[C@](F)(CF)C(=O)N3)nccc2cc1C(N)=O [Example 261, 1-{[(2S,4R)-4-fluoro-4-(fluoromethyl)-5-oxopyrrolidin-2-yl]methoxy}-7-methoxyisoquinoline-6-carboxamide] — 3-fold higher, 671 nM
- COc1cc2c(OCC3(C)COCC(=O)N3)nccc2cc1C(N)=O (stereo not shown) [Example 265, 7-methoxy-1-[(3-methyl-5-oxomorpholin-3-yl)methoxy]isoquinoline-6-carboxamide] — 6.9-fold higher, 1540 nM
- COc1cc2c(OC[C@@H]3C[C@H](CC(F)(F)F)C(=O)N3)nccc2cc1C(N)=O [Example 270, 7-methoxy-1-{[(2S,4R)-5-oxo-4-(2,2,2-trifluoroethyl)pyrrolidin-2-yl]methoxy}isoquinoline-6-carboxamide] — within 1.5-fold, 290 nM
- CCOc1cc2c(OC[C@H]3NC(=O)[C@@H]4C[C@H]34)ccnc2cc1C(N)=O [Example 280, 6-ethoxy-4-{[(1S,2S,5R)-4-oxo-3-azabicyclo[3.1.0]hex-2-yl]methoxy}quinoline-7-carboxamide] — 17-fold higher, 3790 nM
- COc1cc2c(OC[C@H]3NC(=O)[C@@H]4[C@@H](C)[C@@H]43)c(Cl)cnc2cc1C(N)=O [Example 321, 3-chloro-6-methoxy-4-{[(1S,2S,5R)-6-methyl-4-oxo-3-azabicyclo[3.1.0]hex-2-yl]methoxy}quinoline-7-carboxamide] — 19-fold higher, 4190 nM
- COc1cc2c(OC[C@H]3NC(=O)[C@@H]4[C@H](CO)[C@@H]43)nccc2cc1C(N)=O [Example 328, 1-{[(1S,2S,5S)-6-(hydroxymethyl)-4-oxo-3-azabicyclo[3.1.0]hex-2-yl]methoxy}-7-methoxyisoquinoline-6-carboxamide] — 2.4-fold lower, 93 nM
- COc1cc2c(O[C@@H](C)[C@@H]3CCC(=O)N3)nccc2cc1C(N)=O [Example 354, 7-methoxy-1-{(1S)-1-[(2S)-5-oxopyrrolidin-2-yl]ethoxy}isoquinoline-6-carboxamide] — 13-fold higher, 2890 nM
- COc1cc2c(OC[C@H]3NC(=O)[C@H](F)[C@H]3CF)nccc2cc1C(N)=O [Example 375, 1-{[(2S,3R,4R)-4-fluoro-3-(fluoromethyl)-5-oxopyrrolidin-2-yl]methoxy}-7-methoxyisoquinoline-6-carboxamide] — 740-fold lower, 0.3 nM
- Cc1ccnc(-c2cnc(OC[C@@H]3CCC(=O)N3)c3cc(OC(C)C)c(C(N)=O)cc23)n1 [Example 376, 4-(4-methylpyrimidin-2-yl)-1-{[(2S)-5-oxopyrrolidin-2-yl]methoxy}-7-(propan-2-yloxy)isoquinoline-6-carboxamide] — 3.3-fold higher, 740 nM
- CC(C)Oc1cc2c(OC[C@@H]3CCC(=O)N3)ncc(-c3ncc(Cl)cn3)c2cc1C(N)=O [Example 377, 4-(5-chloropyrimidin-2-yl)-1-{[(2S)-5-oxopyrrolidin-2-yl]methoxy}-7-(propan-2-yloxy)isoquinoline-6-carboxamide] — 3.1-fold lower, 72 nM
- Cc1nccc(-c2cnc(OC[C@@H]3CCC(=O)N3)c3cc(OC(C)C)c(C(N)=O)cc23)n1 [Example 379, 4-(2-methylpyrimidin-4-yl)-1-{[(2S)-5-oxopyrrolidin-2-yl]methoxy}-7-(propan-2-yloxy)isoquinoline-6-carboxamide] — 2.3-fold higher, 503 nM

Each compound was assayed on R848-induced TNFα production by human peripheral blood mononuclear cells (PBMCs) (assay: R848 Induced TNFα in Human PBMC Assay). Conditions: Homo sapiens, PBMC, 3 h, read-out: R848-induced TNFa PBMC IC50 (nM).
Type: cell-based

Point of comparison: `COc1cc2c(OC[C@@H]3C[C@@H](C4CCOCC4)C(=O)N3)nccc2cc1C(N)=O` [Example 286, 7-methoxy-1-{[(2S,4S)-5-oxo-4-(tetrahydro-2H-pyran-4-yl)pyrrolidin-2-yl]methoxy}isoquinoline-6-carboxamide], IC50 7020 nM. Against it:
- CCC1C[C@@H](COc2nccc3cc(C(N)=O)c(OC(C)C)cc23)NC1=O (single isomer, unassigned) [Example 113] — 130-fold lower, 53 nM
- COc1cc2c(OC[C@H]3NC(=O)[C@H]4C3[C@H]4C)nccc2cc1C(N)=O (stereo in doubt) [Example 285, 7-methoxy-1-(((1R,2S,5R,6R)-6-methyl-4-oxo-3-azabicyclo[3.1.0]hexan-2-yl)methoxy)isoquinoline-6-carboxamide] — 6.6-fold lower, 1060 nM
- CC[C@@H]1C2[C@@H](COc3nccc4cc(C(N)=O)c(OC)cc34)NC(=O)[C@@H]21 (stereo in doubt) [Example 301, 1-(((1R,2S,5R,6R)-6-ethyl-4-oxo-3-azabicyclo[3.1.0]hexan-2-yl)methoxy)-7-methoxyisoquinoline-6-carboxamide] — 1.7-fold lower, 4050 nM
- COc1cc2c(OC[C@H]3NC(=O)[C@@H]4C(CCF)C43)nccc2cc1C(N)=O (stereo in doubt) [Example 306, 1-(((1R,2S,5R,6R)-6-(2-fluoroethyl)-4-oxo-3-azabicyclo[3.1.0]hexan-2-yl)methoxy)-7-methoxyisoquinoline-6-carboxamide] — 1.7-fold lower, 4060 nM
- COc1cc2c(OC[C@H]3NC(=O)[C@@H](F)[C@@H]3C)nccc2cc1C(N)=O [Example 203, 1-{[(2S,3R,4S)-4-fluoro-3-methyl-5-oxopyrrolidin-2-yl]methoxy}-7-methoxyisoquinoline-6-carboxamide] — 150-fold lower, 47 nM
- COc1cc2c(OC[C@@H]3NC(=O)C[C@@H]3C)nccc2cc1C(N)=O [Example 277, 7-methoxy-1-{[(2R,3S)-3-methyl-5-oxopyrrolidin-2-yl]methoxy}isoquinoline-6-carboxamide] — 1.6-fold lower, 4420 nM
- CCOc1cc2c(OC[C@H]3NC(=O)[C@@H](F)[C@H]3C)nccc2cc1C(N)=O [Example 283, 7-ethoxy-1-{[(2S,3S,4S)-4-fluoro-3-methyl-5-oxopyrrolidin-2-yl]methoxy}isoquinoline-6-carboxamide] — 260-fold lower, 27 nM
- COc1cc2c(OC[C@@H]3C[C@@](F)(C4CCOCC4)C(=O)N3)nccc2cc1C(N)=O [Example 284, 1-{[(2S,4R)-4-fluoro-5-oxo-4-(tetrahydro-2H-pyran-4-yl)pyrrolidin-2-yl]methoxy}-7-methoxyisoquinoline-6-carboxamide] — 22-fold lower, 320 nM

Same assay, conditions: human PBMC, absence of serum, 3 hours; read-out: R848-induced TNFa PBMC IC50

Point of comparison: `COc1cc2c(OC[C@@H]3C[C@@](F)(CC(F)(F)F)C(=O)N3)cccc2cc1C(N)=O` [Example 240, 5-{[(2S,4R)-4-fluoro-5-oxo-4-(2,2,2-trifluoroethyl)pyrrolidin-2-yl]methoxy}-3-methoxynaphthalene-2-carboxamide], IC50 24 nM. Against it:
- CC[C@]1(O)[C@H](F)C(=O)N[C@@H]1COc1nccc2cc(C(N)=O)c(OC)cc12 [Example 196, 1-{[(2R,3R,4S)-3-ethyl-4-fluoro-3-hydroxy-5-oxopyrrolidin-2-yl]methoxy}-7-methoxyisoquinoline-6-carboxamide] — 2.2-fold lower, 11 nM
- CC[C@@H]1[C@H](F)C(=O)NC1(O)COc1nccc2cc(C(N)=O)c(OC)cc12 (stereo partly drawn) [Example 197, 1-{[(3S,4S)-3-ethyl-4-fluoro-2-hydroxy-5-oxopyrrolidin-2-yl]methoxy}-7-methoxyisoquinoline-6-carboxamide] — 3-fold higher, 71 nM
- COc1cc2c(OC[C@H]3NC(=O)[C@@H](F)[C@H]3C(C)O)nccc2cc1C(N)=O (stereo partly drawn) [Example 198, 1-{[(2S,3R,4S)-4-fluoro-3-(1-hydroxyethyl)-5-oxopyrrolidin-2-yl]methoxy}-7-methoxyisoquinoline-6-carboxamide] — 30-fold higher, 715 nM
- COc1cc2c(OC[C@@H]3C[C@@](F)(CO)C(=O)N3)cccc2cc1C(N)=O [Example 207, 5-{[(2S,4R)-4-fluoro-4-(hydroxymethyl)-5-oxopyrrolidin-2-yl]methoxy}-3-methoxynaphthalene-2-carboxamide] — 1.7-fold higher, 41 nM
- COc1cc2c(OC[C@@H]3C[C@](F)(CC(F)(F)F)C(=O)N3)cccc2cc1C(N)=O [Example 241, 5-{[(2S,4S)-4-fluoro-5-oxo-4-(2,2,2-trifluoroethyl)pyrrolidin-2-yl]methoxy}-3-methoxynaphthalene-2-carboxamide] — 240-fold higher, 5760 nM

— patent publication US10329302B2, “Bicyclic-fused heteroaryl or aryl compounds” (Pfizer Inc., priority 2014, dated 2019)
